Values quoted from earlier work, collected in PMC5641599 (Molecular Metabolism, 2017).
Read-outs that look alike come from different tables or passages of the source.

Legend:
Settings in all cases: cited from earlier work
[1] = tested on: MC4R variants
[2] = tested on: MC4R variants; remark: listed apart in the source
[3] = tested on: MC4R variants; remark: listed apart in the source
[4] = tested on: MC4R variants; remark: listed apart in the source
[5] = ref Xiang Z, Biochemistry, 2010
[6] = COS-7 cell line, ref Hughes DA, Hum Genet, 2009
[7] = COS-7 cell line, ref Brumm H, Obesity, 2012
[8] = ref Rong R, Clin Endocrinol, 2006
[9] = ref Xiang Z, Biochemistry, 2006
[10] = ref Lubrano-Berthelier C, J Clin Endocrinol Metab, 2006
[11] = MC4R D126Y, ref Wang ZQ, Biochim Biophys Acta, 2011
[12] = MC4R D146N, ref Wang ZQ, Biochim Biophys Acta, 2011
[13] = MC4R F201L, ref Wang ZQ, Biochim Biophys Acta, 2011
[14] = MC4R G231V, ref Wang ZQ, Biochim Biophys Acta, 2011
[15] = MC4R I170del, ref Wang ZQ, Biochim Biophys Acta, 2011
[16] = MC4R I186V, ref Wang ZQ, Biochim Biophys Acta, 2011
[17] = MC4R I195S, ref Wang ZQ, Biochim Biophys Acta, 2011
[18] = MC4R P260Q, ref Wang ZQ, Biochim Biophys Acta, 2011
[19] = MC4R Q307X, ref Wang ZQ, Biochim Biophys Acta, 2011
[20] = MC4R T248A, ref Huang H, J Mol Endocrinol, 2012
[21] = ref Wang ZQ, Biochim Biophys Acta, 2011

## R18L
[1]; ref Srinivasan S, J Clin Invest, 2004
  Cell surface expression: 95 % of WT
[1]; [5]
  Cell surface expression: 95 % of WT

## S30F
[1]; S30F variant alone, ref Lubrano-Berthelier C, Hum Mol Genet, 2003
  Cell surface expression: 120 % of WT
[2]; COS-7 cell line, ref Hinney A, J Clin Endocrinol Metab, 2003
  Basal activity: 140 % of WT

## S30F/G252S
[1]; both variants on the same allele, ref Lubrano-Berthelier C, Hum Mol Genet, 2003
  Cell surface expression: 60 % of WT
[1]; both variants on the same allele, ref Nijenhuis WA, J Biol Chem, 2003
  Cell surface expression: 69 % of WT

## S36T
[1]; [6]
  Cell surface expression: 107 % of WT
[2]; [6]
  Basal activity: 83 % of WT

## S36Y
[1]; [5]
  Cell surface expression: 90 % of WT

## W16X (MVNSTHRGMHTSLHL; nonsense W16X; UniProt P32245 1-15, looked up, fragment)
[1]; [7]
  Cell surface expression: 5 % of WT
[1]; HEK293 cell line, ref Bolze F, Pharmacogenomics J, 2013
  Cell surface expression: 0 % of WT

## Y35C
[1]; [8]
  Cell surface expression: 100 % of WT
[2]; [8]
  Basal activity: 172 % of WT

## Y35X (MVNSTHRGMHTSLHLWNRSSYRLHSNASESLGKG; nonsense Y35X; UniProt P32245 1-34, looked up, fragment)
[1]; [7]
  Cell surface expression: 0 % of WT
[1]; [9]
  Cell surface expression: 5 % of WT

## Y35X;D37V (MVNSTHRGMHTSLHLWNRSSYRLHSNASESLGKG; nonsense Y35X; D37V; UniProt P32245 1-34, looked up, fragment)
[1]; [10]
  Cell surface expression: 0 % of WT
[2]; [10]
  Basal activity: 10 % of WT

## Y287X
[1]; [9]
  Cell surface expression: 30 % of WT
[1]; ref Yeo GS, Hum Mol Genet, 2003
  Cell surface expression: 0 % of WT

## β-MSH
[3]; MC4R C40Y, COS-7 cell line, ref Hughes DA, Hum Genet, 2009
  cAMP Emax - Ligand no.2: 98.0 % of WT
[3]; MC4R C271R, COS-7 cell line, ref Tarnow P, J Biol Chem, 2003
  cAMP Emax - Ligand no.2 (% of WT): 22.5 % of WT
[3]; MC4R D37G, ref Hughes DA, Hum Genet, 2009
  cAMP Emax - Ligand no.2: 75.0 % of WT
[3]; [11]
  cAMP Emax - Ligand no.2 (% of WT): 0.0 % of WT
[3]; [12]
  cAMP Emax - Ligand no.2 (% of WT): 96.1 % of WT
[3]; [13]
  cAMP Emax - Ligand no.2 (% of WT): 100.0 % of WT
[3]; MC4R F202L, COS-7 cell line, ref Hughes DA, Hum Genet, 2009
  cAMP Emax - Ligand no.2 (% of WT): 79.0 % of WT
[3]; MC4R F280AfsX12, ref Xiang Z, Biochemistry, 2006
  cAMP Emax - Ligand no.2: 0.0 % of WT
[3]; MC4R G181D, ref Xiang Z, Biochemistry, 2010
  cAMP Emax - Ligand no.2 (% of WT): 0.0 % of WT
[3]; [14]
  cAMP Emax - Ligand no.2 (% of WT): 104.9 % of WT
[3]; MC4R H158R, COS-7 cell line, ref Hinney A, J Clin Endocrinol Metab, 2006
  cAMP Emax - Ligand no.2 (% of WT): 122.0 % of WT
[3]; MC4R I125K, ref Xiang Z, Biochemistry, 2006
  cAMP Emax - Ligand no.2 (% of WT): 0.0 % of WT
[3]; MC4R I170V, COS-7 cell line, ref Hughes DA, Hum Genet, 2009
  cAMP Emax - Ligand no.2 (% of WT): 97.0 % of WT
[3]; [15]
  cAMP Emax - Ligand no.2: 0.0 % of WT
[3]; [16]
  cAMP Emax - Ligand no.2 (% of WT): 65.8 % of WT
[3]; [17]
  cAMP Emax - Ligand no.2 (% of WT): 94.1 % of WT
[3]; MC4R I251WfsX34, ref Xiang Z, Biochemistry, 2010
  cAMP Emax - Ligand no.2: 0.0 % of WT
[3]; MC4R L211MfsX6, ref Xiang Z, Biochemistry, 2006
  cAMP Emax - Ligand no.2: 0.0 % of WT
[3]; MC4R M200V, COS-7 cell line, ref Hinney A, J Clin Endocrinol Metab, 2006
  cAMP Emax - Ligand no.2 (% of WT): 91.0 % of WT
[3]; [18]
  cAMP Emax - Ligand no.2 (% of WT): 20.0 % of WT
[3]; MC4R Q156R, COS-7 cell line, ref Hinney A, J Clin Endocrinol Metab, 2006
  cAMP Emax - Ligand no.2 (% of WT): 92.0 % of WT
[3]; MC4R Q307X, ref Santoro N, BMC Med Genet, 2009
  cAMP Emax - Ligand no.2: 0.0 % of WT
[3]; [19]
  cAMP Emax - Ligand no.2: 0.0 % of WT
[3]; MC4R R7C, COS-7 cell line, ref Hinney A, J Clin Endocrinol Metab, 2006
  cAMP Emax - Ligand no.2: 83.0 % of WT
[3]; MC4R R236H, COS-7 cell line, ref Hinney A, J Clin Endocrinol Metab, 2006
  cAMP Emax - Ligand no.2 (% of WT): 96.0 % of WT
[3]; MC4R S36T, COS-7 cell line, ref Hughes DA, Hum Genet, 2009
  cAMP Emax - Ligand no.2: 82.0 % of WT
[3]; MC4R S136F, COS-7 cell line, ref Tarnow P, Obes Facts, 2008
  cAMP Emax - Ligand no.2 (% of WT): 23.0 % of WT
[3]; MC4R S191T, COS-7 cell line, ref Hughes DA, Hum Genet, 2009
  cAMP Emax - Ligand no.2 (% of WT): 97.0 % of WT
[3]; MC4R T162R, COS-7 cell line, ref Ochoa MC, Clin Endocrinol, 2007
  cAMP Emax - Ligand no.2 (% of WT): 80.0 % of WT
[3]; [20]
  cAMP Emax - Ligand no.2 (% of WT): 79.5 % of WT
[3]; MC4R V166I, COS-7 cell line, ref Hinney A, J Clin Endocrinol Metab, 2006
  cAMP Emax - Ligand no.2 (% of WT): 105.0 % of WT
[3]; MC4R V166I, COS-7 cell line, ref Hughes DA, Hum Genet, 2009
  cAMP Emax - Ligand no.2 (% of WT): 105.0 % of WT
[3]; MC4R W174C, ref Xiang Z, Biochemistry, 2010
  cAMP Emax - Ligand no.2 (% of WT): 0.0 % of WT
[3]; MC4R Y35X, ref Xiang Z, Biochemistry, 2006
  cAMP Emax - Ligand no.2: 0.0 % of WT
[4]; [11]
  Binding Bmax - Ligand no.2 (% of WT): 0.0 % of WT
[4]; [12]
  Binding Bmax - Ligand no.2 (% of WT): 23.9 % of WT
[4]; [13]
  Binding Bmax - Ligand no.2 (% of WT): 116.0 % of WT
[4]; MC4R F280L, ref Wang ZQ, Biochim Biophys Acta, 2011
  Binding Bmax (% of WT): 57.4 % of WT
[4]; [14]
  Binding Bmax - Ligand no.2 (% of WT): 123.2 % of WT
[4]; MC4R H76R, ref Wang ZQ, Biochim Biophys Acta, 2011
  Binding Bmax (% of WT): 81.7 % of WT
[4]; MC4R I69R, ref Wang ZQ, Biochim Biophys Acta, 2011
  Binding Bmax (% of WT): 0.0 % of WT
[4]; [15]
  Binding Bmax - Ligand no.2: 0.0 % of WT
[4]; [16]
  Binding Bmax - Ligand no.2 (% of WT): 150.5 % of WT
[4]; [17]
  Binding Bmax - Ligand no.2 (% of WT): 71.2 % of WT
[4]; MC4R I289L, ref Wang ZQ, Biochim Biophys Acta, 2011
  Binding Bmax (% of WT): 127.4 % of WT
[4]; MC4R M79I, ref Wang ZQ, Biochim Biophys Acta, 2011
  Binding Bmax (% of WT): 98.2 % of WT
[4]; [18]
  Binding Bmax - Ligand no.2 (% of WT): 0.0 % of WT
[4]; [19]
  Binding Bmax - Ligand no.2: 0.0 % of WT
[4]; MC4R R305S, ref Wang ZQ, Biochim Biophys Acta, 2011
  Binding Bmax (% of WT): 128.1 % of WT
[4]; MC4R S94N, ref Wang ZQ, Biochim Biophys Acta, 2011
  Binding Bmax (% of WT): 41.0 % of WT
[4]; [20]
  Binding Bmax - Ligand no.2 (% of WT): 125.0 % of WT
[4]; MC4R Y332C, ref Wang ZQ, Biochim Biophys Acta, 2011
  Binding Bmax (% of WT): 129.6 % of WT
[4]; MC4R Y332H, ref Wang ZQ, Biochim Biophys Acta, 2011
  Binding Bmax (% of WT): 150.0 % of WT

B1: I170del (protein, UniProt P32245 1-332, looked up, variant I170*)
Melanocortin receptor 4: MVNSTHRGMHTSLHLWNRSSYRLHSNASESLGKGYSDGGCYEQLFVSPEVFVTLGVISLLENILVIVAIAKNKNLHSPMYFFICSLAVADMLVSVSNGSETIVITLLNSTDTDAQSFTVNIDNVIDSVICSSLLASICSLLSIAVDRYFTIFYALQYHNIMTVKRVGIISCIWAACTVSGILFIIYSDSSAVIICLITMFFTMLALMASLYVHMFLMARLHIKRIAVLPGTGAIRQGANMKGAITLTILIGVFVVCWAPFFLHLIFYISCPQNPYCVCFMSHFNLYLILIMCNSIIDPLIYALRSQELRKTFKEIICCYPLGGLCDLSSRY
[1]; [21]
  Cell surface expression: 10 % of WT
[2]; [21]
  Basal activity: 25 % of WT

B2: Y80X (protein, UniProt P32245 1-79, looked up, fragment)
chain: MVNSTHRGMHTSLHLWNRSSYRLHSNASESLGKGYSDGGCYEQLFVSPEVFVTLGVISLLENILVIVAIAKNKNLHSPM
modifications: nonsense Y80X
[1]; [10]
  Cell surface expression: 0 % of WT
[2]; [10]
  Basal activity: 10 % of WT
